Reference: the supplement of paper PMC5752671

Assays:
Test in all cases: IC50 (cell viability) (log10 M)
Settings in all cases: 4 days
[1] = test system: EOL-1
Outline: (§1)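 The IC50 entries come from fitted dose-response curves. Each value is the concentration in log10 M where a fitted four-parameter curve reaches 50% viability, and the highest tested concentration is entered when that level is not reached. Fourteen leukemia cell lines on extracellular-matrix-coated 384-well plates received drugs in duplicate at eight concentrations within 10^–12–10^–4 M, and viability was read with CellTiter-Glo after 4 days.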

[2] = test system: HL60
Outline: as §1

[3] = test system: KASUMI1
Outline: as §1

[4] = test system: KG1
Outline: as §1

[5] = test system: MOLM/13
Outline: as §1

[6] = test system: MOLM/16
Outline: as §1

[7] = test system: MV4.11
Outline: as §1

[8] = test system: OCI-AML2
Outline: as §1

[9] = test system: SKM1
Outline: as §1

[10] = test system: U937
Outline: as §1

IC50 (log10 M) [2]	IC50 (log10 M) [5]	IC50 (log10 M) [6]	IC50 (log10 M) [7]	IC50 (log10 M) [8]	IC50 (log10 M) [9]	IC50 (log10 M) [10]	Structure (SMILES)	IC50 (log10 M) [1]	IC50 (log10 M) [3]	IC50 (log10 M) [4]
-5.35	-7.57	-7.98	-7.75	-7.24	-7.16	-8.07	COc1ccc(-c2ccc3c(N4CCOC[C@@H]4C)nc(N4CCOC[C@@H]4C)nc3n2)cc1CO [AZD-8055]	-8.05	-6.78	-7.85
-5.28	-5.77	-5.77	-5.94	-5.53	-5.34	-5.67	CNC(=O)c1ccccc1Sc1ccc2c(/C=C/c3ccccn3)n[nH]c2c1 [Axitinib]	-8.07	-6.09	-6.58
-5.15	-6.31	-6.22	-5.85	-5.78	-5.76	-5.38	Nc1ncn([C@@H]2O[C@H](CO)[C@@H](O)[C@H]2O)c(=O)n1 [Azacitidine]	-6.46	-5.32	-5.17
-6.19	-6	-6.09	-6.31	-5.94	-6.22	-6.11	Cc1ccc(S(=O)(=O)/C=C/C#N)cc1 [BAY 11-7082]	-6.3	-6.25	-6.21
-6.66	-6.13	-6.25	-6.27	-6	-6.48	-6.33	CC(C)(C)c1ccc(S(=O)(=O)/C=C/C#N)cc1 [BAY 11-7085]	-6.66	-6.75	-6.46
-6.65	-7.34	-7.64	-7.24	-7.06	-7.5	-7.84	Cn1c(=O)n(-c2ccc(C(C)(C)C#N)cc2)c2c3cc(-c4cnc5ccccc5c4)ccc3ncc21 [BEZ-235]	-7.84	-7.17	-6.98
-6.86	-7.59	-8.05	-7.65	-7.3	-7.48	-8.02	COc1ccc(-c2ccc3ncc4c(c3c2)n(-c2ccc(N3CCNCC3)c(C(F)(F)F)c2)c(=O)n4C)cn1 [BGT-226]	-8.04	-7.28	-6.94
< -8.34	< -8.34	< -8.34	< -8.34	< -8.34	< -8.34	< -8.34	CC[C@@H]1C(=O)N(C)c2cnc(Nc3ccc(C(=O)NC4CCN(C)CC4)cc3OC)nc2N1C1CCCC1 [BI-2536]	< -8.34	< -8.34	< -8.34
> -5	-6.53	> -5	-6.52	> -5	> -5	> -5	COC(=O)c1ccc2c(c1)NC(=O)/C2=C(\Nc1ccc(N(C)C(=O)CN2CCN(C)CC2)cc1)c1ccccc1 [BIBF1120]	-8.09	> -5	-5.46
-5.68	-5.43	-6.56	-6.25	-5.49	-5.76	-5.56	CN(C)C/C=C/C(=O)Nc1cc2c(Nc3ccc(F)c(Cl)c3)ncnc2cc1O[C@H]1CCOC1 [BIBW 2992]	-6.43	-5.76	-5.46
-6.91	-7.04	-7.83	-7.71	-7.69	-7.16	-7.36	O=C(/C=C/c1cccc(S(=O)(=O)Nc2ccccc2)c1)NO [Belinostat]	-7.83	-7.21	-7.32
> -5	> -5	> -5	–	> -5	> -5	> -5	C=C(c1ccc(C(=O)O)cc1)c1cc2c(cc1C)C(C)(C)CCC2(C)C [Bexarotene]	-5.94	> -5	> -5
> -5	> -5	> -5	> -5	> -5	> -5	> -5	O=c1c(N=Nc2ccc(S(=O)(=O)O)cc2)c(-c2ccc([N+](=O)[O-])cc2)[nH]n1-c1ccccc1 [PHPS1]	> -5	> -5	> -5
-6.37	-6.02	–	-6.42	-6.15	-6.33	-6.89	Oc1cccc(-c2nc(N3CCOCC3)c3oc4ncccc4c3n2)c1 [PI-103]	-6.88	-6.95	-5.82
-7.16	-7.66	-7.89	-8.03	-7.35	-7.21	-7.33	Cc1ccc([N+](=O)[O-])cc1S(=O)(=O)N(C)/N=C/c1cnc2ccc(Br)cn12 [PIK-75]	-7.78	-7.18	-7.25
-5.78	> -5	> -5	> -5	> -5	> -5	> -5	COc1ccc2c3n(c(=NC(=O)c4cccnc4)nc2c1OC)CCN3 [PIK-90]	-5.42	-5.88	> -5
-5.63	-7.53	-6.92	-8.13	-6.66	-5.89	-6.8	CO[C@@H]1[C@H](N(C)C(=O)c2ccccc2)C[C@H]2O[C@]1(C)n1c3ccccc3c3c4c(c5c6ccccc6n2c5c31)C(=O)NC4 [PKC412]	-8.49	-6.37	-6.75
-6.61	-7.6	-6.61	-7.54	-7.38	-7.5	< -8.34	CN(C)C1CCN(C(=O)c2ccc(NC(=O)Nc3ccc(-c4nc(N5CCOCC5)nc(N5CCOCC5)n4)cc3)cc2)CC1 [PKI-587]	-7.97	-6.27	-5.83
> -5	> -5	> -5	> -5	-5.27	> -5	> -5	CCCS(=O)(=O)Nc1ccc(F)c(C(=O)c2c[nH]c3ncc(-c4ccc(Cl)cc4)cc23)c1F [PLX-4032]	> -5	-5.02	> -5
-5.97	-7.55	–	-8.16	-7.81	-7	-6.46	C=CCNC1=C2C[C@@H](C)C[C@H](OC)[C@H](O)[C@@H](C)/C=C(\C)[C@H](OC(N)=O)[C@@H](OC)/C=C\C=C(/C)C(=O)NC(=CC1=O)C2=O [Tanespimycin]	-7.03	-6.43	-5.84
